Measurements reported in PMC11995216, “End-to-End Backbone Cyclization Enhances Passive Permeability of bRo5 Oligomeric Depsipeptides with Nonlinear Size Dependence” (ACS Medicinal Chemistry Letters, 2025).
Where “and” joins values, the source holds several entries; their conditions need not be identical. Equal entries are not always repeated. Where two headings read alike, the source gives them in different places. Starred links: 1 amine or outer side, 2 acyl side, 3 side chain; linkers in the order of their positions; H or OH if unused. Non-standard residues stand in square brackets, D forms with d. Residues, ends and D or L forms follow the SMILES beside them. *: point of attachment. X1 = CCCCC[C@H](O[*:1])C(=O)[*:2]; Ahp(2) = CCCCC[C@H](N)C(=O)O; dNMeA = CN[C@H](C)C(=O)O; OBn = c1ccc(CO*)cc1

What was measured:
[1] = calculated using Supplement Equation 1, UV detection
[2] = UV detection
[3] = initial concentration 500 uM, UV detection
[4] = initial concentration 500 uM, UV detection; remark: listed apart in the source
PAMPA [5] = details: calculated using Supplement Equation 1, UV detection
PAMPA [6] = details: UV detection
in vitro = details: PAMPA, Papp
PAMPA [7] = tested on: PAMPA
PAMPA [8] = details: initial concentration 500 uM, UV detection
PAMPA [9] = details: initial concentration 500 uM
[10] = PAMPA, 500 uM

With `CCCCC[C@H](NC(=O)[C@@H](C)N(C)C(=O)[C@H](CCCCC)NC(=O)[C@@H](C)N(C)C(=O)[C@H](CCCCC)NC(=O)[C@@H](C)N(C)C(=O)[C@H](CCCCC)OC(=O)[C@@H](C)NC)C(=O)OCc1ccccc1` (H-[dNMeA][X1][dNMeA][Ahp(2)][dNMeA][Ahp(2)][dNMeA][Ahp(2)]-OBn) the %T ([1]; Well 1 / %T, Well 1) was 0.52% and 0.53%, the %T ([1]; Well 2 / %T, Well 2) was 0.54% and the %T ([1]; Well 3 / %T, Well 3) was 0.53% and 0.5%. For the same compound, the %T ([1]; Well 4 / %T, Well 4) was 0.5% and 0.52%, the %T ([1]; Well 5 / %T, Well 5) was 0.53% and 0.52% and the % recovery ([2]; Well 1 / %R, Well 1) was 91% and 92%. For the same compound, the % recovery ([2]; Well 2 / %R, Well 2) was 87% and 92%, the % recovery ([2]; Well 3 / %R, Well 3) was 90% and the % recovery ([2]; Well 4 / %R, Well 4) was 88% and 86%. For the same compound, the % recovery ([2]; Well 5 / %R, Well 5) was 87% and 88%, the donor concentration after incubation ([3]; Well 1 / [donor], Well 1) was 396 µM and 397 µM and the donor concentration after incubation ([3]; Well 2 / [donor], Well 2) was 375 µM and 395 µM. For the same compound, the donor concentration after incubation ([3]; Well 3 / [donor], Well 3) was 387 µM and 374 µM, the donor concentration after incubation ([3]; Well 4 / [donor], Well 4) was 382 µM and 368 µM and the donor concentration after incubation ([3]; Well 5 / [donor], Well 5) was 376 µM and 377 µM. The acceptor concentration after incubation ([4]; Well 1 / [acc], Well 1) was 56 µM and 61.7 µM, the acceptor concentration after incubation ([4]; Well 2 / [acc], Well 2) was 58.6 µM and 63.1 µM and the acceptor concentration after incubation ([4]; Well 3 / [acc], Well 3) was 59.5 µM and 60.4 µM. The acceptor concentration after incubation ([4]; Well 4 / [acc], Well 4) was 58.3 µM and 60.3 µM and the acceptor concentration after incubation ([4]; Well 5 / [acc], Well 5) was 60.6 µM and 61.4 µM.

In the case of `CCCCC[C@@H]1OC(=O)[C@@H](C)N(C)C(=O)[C@H](CCCCC)OC(=O)[C@@H](C)N(C)C1=O` [Compound C1.2], the %T (PAMPA [5]; Well 1 / %T, Well 1) is reported as 0.56% and 0.55%, the %T (PAMPA [5]; Well 2 / %T, Well 2) is reported as 0.58% and 0.6% and the %T (PAMPA [5]; Well 3 / %T, Well 3) is reported as 0.6% and 0.62%. For the same compound, the %T (PAMPA [5]; Well 4 / %T, Well 4) was 0.6% and 0.61%, the %T (PAMPA [5]; Well 5 / %T, Well 5) was 0.59% and 0.57% and the % recovery (PAMPA [6]; Well 1 / %R, Well 1) was 90%. For the same compound, the % recovery (PAMPA [6]; Well 2 / %R, Well 2) was 90% and 92%, the % recovery (PAMPA [6]; Well 3 / %R, Well 3) was 93% and 90% and the % recovery (PAMPA [6]; Well 4 / %R, Well 4) was 92%. For the same compound, the % recovery (PAMPA [6]; Well 5 / %R, Well 5) was 88% and 89%, the Papp at 500 uM (in vitro) was 5.05 ± 0.33 ×10⁻⁶ cm/s and the Papp at 500 uM (in vitro; Ave) was 4.78 ×10⁻⁶ cm/s. The Papp (PAMPA [7]; Papp (x 10^-6 cm/s) – ELSD Detection / [row 1], ELSD Detection) was 4.36 ×10⁻⁶ cm/s, the Papp (PAMPA [7]; Papp (x 10^-6 cm/s) – ELSD Detection / [row 2], ELSD Detection) was 4.48 ×10⁻⁶ cm/s and the Papp (PAMPA [7]; Papp (x 10^-6 cm/s) – ELSD Detection / [row 3], ELSD Detection) was 4.72 ×10⁻⁶ cm/s. It also gave a Papp (PAMPA [7]; Papp (x 10^-6 cm/s) – ELSD Detection / [row 4], ELSD Detection) of 4.83 ×10⁻⁶ cm/s, a Papp (PAMPA [7]; Papp (x 10^-6 cm/s) – ELSD Detection / [row 5], ELSD Detection) of 4.34 ×10⁻⁶ cm/s and a Papp (PAMPA [7]; Papp (x 10^-6 cm/s) – ELSD Detection / [row 6], ELSD Detection) of 4.86 ×10⁻⁶ cm/s. The Papp (PAMPA [7]; Papp (x 10^-6 cm/s) – ELSD Detection / [row 7], ELSD Detection) was 4.88 ×10⁻⁶ cm/s, the Papp (PAMPA [7]; Papp (x 10^-6 cm/s) – ELSD Detection / [row 8], ELSD Detection) was 5.23 ×10⁻⁶ cm/s and the Papp (PAMPA [7]; Papp (x 10^-6 cm/s) – ELSD Detection / [row 9], ELSD Detection) was 5.23 ×10⁻⁶ cm/s. It also gave a Papp (PAMPA [7]; Papp (x 10^-6 cm/s) – ELSD Detection / [row 10], ELSD Detection) of 4.89 ×10⁻⁶ cm/s, a Papp (PAMPA [7]; Papp (x 10^-6 cm/s) – UV Detection / [row 1], UV Detection) of 4.63 ×10⁻⁶ cm/s and a Papp (PAMPA [7]; Papp (x 10^-6 cm/s) – UV Detection / [row 2], UV Detection) of 4.93 ×10⁻⁶ cm/s. The Papp (PAMPA [7]; Papp (x 10^-6 cm/s) – UV Detection / [row 3], UV Detection) was 5.16 ×10⁻⁶ cm/s, the Papp (PAMPA [7]; Papp (x 10^-6 cm/s) – UV Detection / [row 4], UV Detection) was 5.2 ×10⁻⁶ cm/s and the Papp (PAMPA [7]; Papp (x 10^-6 cm/s) – UV Detection / [row 6], UV Detection) was 4.49 ×10⁻⁶ cm/s. The Papp (PAMPA [7]; Papp (x 10^-6 cm/s) – UV Detection / [row 7], UV Detection) was 5.18 ×10⁻⁶ cm/s, the Papp (PAMPA [7]; Papp (x 10^-6 cm/s) – UV Detection / [row 8], UV Detection) was 5.55 ×10⁻⁶ cm/s and the Papp (PAMPA [7]; Papp (x 10^-6 cm/s) – UV Detection / [row 9], UV Detection) was 5.44 ×10⁻⁶ cm/s. For the same compound, the Papp (PAMPA [7]; Papp (x 10^-6 cm/s) – UV Detection / [row 10], UV Detection) was 4.87 ×10⁻⁶ cm/s, the donor concentration after incubation (PAMPA [8]; Well 1 / [donor], Well 1) was 356 µM and the donor concentration after incubation (PAMPA [8]; Well 2 / [donor], Well 2) was 347 µM and 350 µM. For the same compound, the donor concentration after incubation (PAMPA [8]; Well 3 / [donor], Well 3) was 356 µM and 338 µM, the donor concentration after incubation (PAMPA [8]; Well 4 / [donor], Well 4) was 346 µM and the donor concentration after incubation (PAMPA [8]; Well 5 / [donor], Well 5) was 339 µM and 346 µM. For the same compound, the Acceptor Concentration (PAMPA [9]; Acceptor Concentration (uM) – ELSD Detection / [row 1], ELSD Detection) was 94.8 µM, the Acceptor Concentration (PAMPA [9]; Acceptor Concentration (uM) – ELSD Detection / [row 2], ELSD Detection) was 98.9 µM and the Acceptor Concentration (PAMPA [9]; Acceptor Concentration (uM) – ELSD Detection / [row 3], ELSD Detection) was 102 µM. For the same compound, the Acceptor Concentration (PAMPA [9]; Acceptor Concentration (uM) – ELSD Detection / [row 4], ELSD Detection) was 107 µM, the Acceptor Concentration (PAMPA [9]; Acceptor Concentration (uM) – ELSD Detection / [row 5], ELSD Detection) was 98.1 µM and the Acceptor Concentration (PAMPA [9]; Acceptor Concentration (uM) – ELSD Detection / [row 6], ELSD Detection) was 113 µM. It also gave an Acceptor Concentration (PAMPA [9]; Acceptor Concentration (uM) – ELSD Detection / [row 7], ELSD Detection) of 118 µM, an Acceptor Concentration (PAMPA [9]; Acceptor Concentration (uM) – ELSD Detection / [row 8], ELSD Detection) of 122 µM and an Acceptor Concentration (PAMPA [9]; Acceptor Concentration (uM) – ELSD Detection / [row 9], ELSD Detection) of 113 µM. It also gave an Acceptor Concentration (PAMPA [9]; Acceptor Concentration (uM) – ELSD Detection / [row 10], ELSD Detection) of 109 µM, an Acceptor Concentration (PAMPA [9]; Acceptor Concentration (uM) – UV Detection / [row 1], UV Detection) of 98.5 µM and an Acceptor Concentration (PAMPA [9]; Acceptor Concentration (uM) – UV Detection / [row 2], UV Detection) of 103 µM. The Acceptor Concentration (PAMPA [9]; Acceptor Concentration (uM) – UV Detection / [row 3], UV Detection) was 111 µM, the Acceptor Concentration (PAMPA [9]; Acceptor Concentration (uM) – UV Detection / [row 4], UV Detection) was 108 µM and the Acceptor Concentration (PAMPA [9]; Acceptor Concentration (uM) – UV Detection / [row 5], UV Detection) was 103 µM. For the same compound, the Acceptor Concentration (PAMPA [9]; Acceptor Concentration (uM) – UV Detection / [row 6], UV Detection) was 95 µM, the Acceptor Concentration (PAMPA [9]; Acceptor Concentration (uM) – UV Detection / [row 7], UV Detection) was 109 µM and the Acceptor Concentration (PAMPA [9]; Acceptor Concentration (uM) – UV Detection / [row 8], UV Detection) was 114 µM. The Acceptor Concentration (PAMPA [9]; Acceptor Concentration (uM) – UV Detection / [row 9], UV Detection) was 114 µM, the LogPapp [10] was -5.30 ± 0.03 and the Δ % diffusion [10] was “↑5%”.
